Measurements: article PMC6535779, “A Specific, Glycomimetic Langerin Ligand for Human Langerhans Cell Targeting” (ACS Central Science, 2019)

Tests used:
Langerin CRD = molecular target: T1, Langerin CRD (Homo sapiens, UniProt Q9UJ71); design: method as in PMID 27458873; settings: previously published value; cited from earlier work
T1 construct: Experiments with the Langerin CRD were performed at; made in house

[1] = molecular target: T2, Langerin extracellular domain (ECD) (Homo sapiens, UniProt Q9UJ71); design: method as in PMID 27458873; settings: 19F R2-filtered NMR; previously published value; cited from earlier work
T2 construct: the trimeric Langerin extracellular domain (ECD) was expressed insolubly in E; made in house

[2] = molecular target: T2, Langerin extracellular domain (ECD); assay: 19F R2-filtered NMR reporter displacement assay with Langerin; assay type: binding; settings: calculated utilizing the KI value determined for 21
Method: (§1) Receptor Expression and Purification
General remarks. Codon-optimized genes for the expression of Langerin and DC-SIGN in E. coli were purchased from GenScript and Life Technologies, respectively. All growth media or chemicals used for receptor expression and purification were purchased from Carl Roth if not stated otherwise.
Langerin extracellular domain. Expression and purification were conducted as previously published14. Briefly, the trimeric Langerin extracellular domain (ECD) was expressed insolubly in E. coli BL21* (DE3) (Invitrogen). Following enzymatic cell lysis, inclusion bodies were harvested and subsequently solubilized. The sample was centrifuged and the Langerin ECD was refolded overnight via rapid dilution. Next, the sample was dialyzed overnight, centrifuged and purified via mannan-agarose affinity chromatography (Sigma Aldrich). For 19F R2-filtered NMR and lipid-enzyme-linked lectin assay (Lipid-ELLA) experiments, the buffer was exchanged to 25 mM Tris with 150 mM NaCl and 5 mM CaCl2 at pH 7.8 using 7 kDa size-exclusion desalting columns (Thermo Scientific). For […]
D2O, 150 mM NaCl and 5 mM CaCl2 at pH 7. The concentration of Langerin ECD was determined via UV spectroscopy (A280, 0.1% = 2.45). Purity and monodispersity of Langerin ECD samples were analyzed via SDS PAGE and DLS. […]
(§2) General remarks. 19F R2-filtered NMR experiments were conducted on a PremiumCompact 600 MHz spectrometer (Agilent). Spectra were processed in MestReNova and data analysis was performed with OriginPro 13, 15. Experiments with the Langerin ECD were performed at a receptor concentration of 50 μM in 25 mM Tris with 10% D2O, 150 mM NaCl and 5 mM CaCl2 at pH 7.8 and 25° C. […]
10% D2O, 150 mM NaCl and 5 mM CaCl2 at pH 7.0 and 25°C. TFA served as an internal reference at a concentration of 50 μM. Apparent relaxation rates R2,obs for the reporter ligand were determined using the CPMG pulse sequence as previously published3-5. […]
KI determination. KI values were determined as previously published for Langerin3. Briefly, titration experiments were conducted at a concentration of 0.1 mM of reporter ligand 24 at five competitor concentrations [I]T. Samples were prepared via serial dilution. For the acids GlcNS, GlcNAc-6-OS and GlcNS-6-OS the pH values were monitored and adjusted to 7.8 if necessary.
General remarks. 15N HSQC NMR experiments were conducted on an Ascend 700 MHz spectrometer (Bruker)16. Spectra were processed in NMRPipe17. Data analysis was performed using CCPN Analysis, MatLab and OriginPro15, 18-19. Experiments with the Langerin CRD were performed at a receptor concentration of 100 μM in 25 mM HEPES with 10% D 2O, 150 mM NaCl and 5 mM CaCl2 at pH 7.8 and 25° C. DSS-d6 served as an internal reference at a concentration of 100 μM. Spectra were referenced via the internal spectrometer reference. Spectra were acquired with 128 increments and 32 scans per increments for 150 μl samples in 3 mm sample tubes. The relaxation delay d1 was set to 1.4 s and the acquisition time tacq was set to 100 ms. The W5 Watergate pulse sequence was used for solvent suppression20. The used resonance assignment for the Langerin CRD has been published […]
KD determination. KD values were determined in titration experiments at six ligand concentrations [L]T. Samples were prepared via serial dilution. Chemical shift perturbations CSPs for Langerin CRD resonances in the fast or fast-to-intermediate exchange regime observed upon titration with ligand were calculated via Equation 121.

DC-SIGN CRD = molecular target: T3, DC-SIGN CRD (Homo sapiens, UniProt Q9NNX6); assay: 19F R2-filtered NMR reporter displacement assay with DC-SIGN; assay type: binding
T3 construct: with the DC-SIGN CRD were performed at a receptor concentration of 50 μM; made in house
T3 sequence (Q9NNX6 263-378 limits assumed): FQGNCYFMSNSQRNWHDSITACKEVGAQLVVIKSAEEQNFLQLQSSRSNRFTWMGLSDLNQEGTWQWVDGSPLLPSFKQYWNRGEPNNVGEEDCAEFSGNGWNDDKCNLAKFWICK
Text: Figure S7. 19F R2-filtered NMR assay development with DC-SIGN. […]
substantial line broadeni ng. This phenomenon was utilized to develop the 19F R2-filtered NMR reporter displacement assay following the procedure previously published for Langerin 3. The spectrum in absence of DC -SIGN is processed with an exponential apodization function at 1.8 Hz. b. The interaction between 24 and DC-SIGN was quantified via the transversal relaxation rate R2,obs using the CPMG pulse sequence4-5. Representative decay curves in the presence of DC-SIGN are shown. c. The Ca2+-dependency of the interaction was validated via addition of EDTA. The R2,obs value in absence of DC-SIGN was determined from four independent experiments. The standard error for the experiments in presence of DC-SIGN and EDTA is derived directly from the fitting procedure. d. Relaxation dispersion experiments for 24 in presence of DC-SIGN indicate at negligible exchange contribution R2,ex at a νCPMG value of 500 Hz. In contrast to Langerin, a considerable exchange contribution is observed a lower νCPMG values. e. A representative binding isotherm for the affinity determination for 24 is shown. The KD value was determined from three independent titrations. The obtained K D and additional parameters from the fitting procedure are given in Tab le S3.
(1 picture or pasted object on this page, not shown here)
as §1
General remarks. Codon-optimized genes for the expression of Langerin and DC-SIGN in E. coli were purchased from GenScript and Life Technologies, respectively. All growth media or chemicals used for receptor expression and purification were purchased from Carl Roth if not stated otherwise. […]
Langerin and DC-SIGN carbohydrate recognition domain. Expression and purification were conducted as previously published14. Briefly, the monomeric 15N-labeled Langerin and DC-SIGN carbohydrate recognition domains (CRDs) were expressed insolubly in E. coli BL21* (DE3) (Invitrogen). Following enzymatic cell lysis, inclusion bodies were harvested and subsequently solubilized. The sample was centrifuged and the Langerin and DC-SIGN CRDs were refolded overnight via rapid dilution. Next, the sample was dialyzed overnight, centrifuged and purified via StrepTactin affinity chromatography (Iba). After an additional dialysis step overnight, the sample was centrifuged and the buffer was exchanged to 25 mM HEPES with 150 mM NaCl at pH 7.0 using 7 kDa size-exclusion desalting columns (Thermo Scientific) for 19F R2-filtered and 15N HSQC NMR experiments. The concentration of Langerin and DC -SIGN CRDs was determined via UV spectroscopy (A280, 0.1% = 3.19 and A280, 0.1% = 2.98). Purity and monodispersity of Langerin and DC - SIGN CRD samples were analyzed via SDS PAGE and DLS.
as §2, with “C. Experiments” for “C.”
with the DC-SIGN CRD were performed at a receptor concentration of 50 μM in 25 mM HEPES with 10% D2O, 150 mM NaCl and 5 mM CaCl2 at pH 7.0 and 25°C. TFA served as an internal reference at a concentration of 50 μM. Apparent relaxation rates R2,obs for the reporter ligand were determined using the CPMG pulse sequence as previously published3-5.
Assay development for DC-SIGN. The 19F R2-filtered NMR reporter displacement assay for DC-SIGN was developed following the procedure previously published for Langerin3. Briefly, the KD value and the relaxation rate in bound state R2,b were determined at five concentrations [L]T of reporter ligand 24 in three independent titration experiments. Samples were prepared via serial dilution. The addition of 10 mM EDTA served to validate the Ca2+-dependency of the interaction between DC-SIGN and the reporter ligand. […]

T2 sequence (Q9UJ71 65-328 limits assumed): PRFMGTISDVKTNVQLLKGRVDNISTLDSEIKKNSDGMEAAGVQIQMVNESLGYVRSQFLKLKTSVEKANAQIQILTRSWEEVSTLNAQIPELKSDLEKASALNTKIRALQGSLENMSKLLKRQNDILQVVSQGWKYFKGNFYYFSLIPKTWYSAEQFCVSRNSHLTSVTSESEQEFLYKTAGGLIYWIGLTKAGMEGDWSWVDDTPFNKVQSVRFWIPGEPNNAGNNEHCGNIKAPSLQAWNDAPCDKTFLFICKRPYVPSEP
T1 sequence (Q9UJ71 202-320 limits assumed): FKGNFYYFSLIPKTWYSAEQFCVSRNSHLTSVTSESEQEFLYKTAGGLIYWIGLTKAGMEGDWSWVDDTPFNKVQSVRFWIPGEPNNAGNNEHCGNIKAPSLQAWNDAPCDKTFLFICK

SMILES: OC[C@H]1OC(O)[C@@H](O)[C@@H](O)[C@@H]1O (some centres unmarked) [Man, mannose]
- Kd (Langerin CRD): 6.5 ± 0.2 mM
- Ki [1]: 4.5 ± 0.5 mM
- Relative potency, Langerin [2]: 2.2
- Ki (DC-SIGN CRD; 19F R2-filtered NMR, DC-SIGN CRD, pH 7.0, 25 °C): 3 ± 0.3 mM
- specificity (DC-SIGN CRD; Table 1, Langerin against DC-SIGN, from KI values): 0.67
